Read-outs that look alike come from different tables or passages of the source.
Legend:
Assay type in all cases: binding
[1] = target: various enzymes (Homo sapiens, UniProt P29317); settings: compound 1 uM
Method: (§1) Ambit profiling was conducted in accordance with the manufacturer's instructions.

[2] = target: various enzymes (Homo sapiens, UniProt O94921); settings: compound 1 uM
Method: as §1

[3] = target: various enzymes (Homo sapiens, UniProt P00519, F317I); settings: compound 1 uM
Method: as §1

[4] = target: various enzymes (Homo sapiens, UniProt Q13546); settings: compound 1 uM
Method: as §1

[5] = target: various enzymes (Homo sapiens, UniProt Q96J92); settings: compound 1 uM
Method: as §1

[6] = target: T1, various enzymes (Homo sapiens, UniProt P36888); settings: compound 1 uM
T1 sequence (P36888 27-993): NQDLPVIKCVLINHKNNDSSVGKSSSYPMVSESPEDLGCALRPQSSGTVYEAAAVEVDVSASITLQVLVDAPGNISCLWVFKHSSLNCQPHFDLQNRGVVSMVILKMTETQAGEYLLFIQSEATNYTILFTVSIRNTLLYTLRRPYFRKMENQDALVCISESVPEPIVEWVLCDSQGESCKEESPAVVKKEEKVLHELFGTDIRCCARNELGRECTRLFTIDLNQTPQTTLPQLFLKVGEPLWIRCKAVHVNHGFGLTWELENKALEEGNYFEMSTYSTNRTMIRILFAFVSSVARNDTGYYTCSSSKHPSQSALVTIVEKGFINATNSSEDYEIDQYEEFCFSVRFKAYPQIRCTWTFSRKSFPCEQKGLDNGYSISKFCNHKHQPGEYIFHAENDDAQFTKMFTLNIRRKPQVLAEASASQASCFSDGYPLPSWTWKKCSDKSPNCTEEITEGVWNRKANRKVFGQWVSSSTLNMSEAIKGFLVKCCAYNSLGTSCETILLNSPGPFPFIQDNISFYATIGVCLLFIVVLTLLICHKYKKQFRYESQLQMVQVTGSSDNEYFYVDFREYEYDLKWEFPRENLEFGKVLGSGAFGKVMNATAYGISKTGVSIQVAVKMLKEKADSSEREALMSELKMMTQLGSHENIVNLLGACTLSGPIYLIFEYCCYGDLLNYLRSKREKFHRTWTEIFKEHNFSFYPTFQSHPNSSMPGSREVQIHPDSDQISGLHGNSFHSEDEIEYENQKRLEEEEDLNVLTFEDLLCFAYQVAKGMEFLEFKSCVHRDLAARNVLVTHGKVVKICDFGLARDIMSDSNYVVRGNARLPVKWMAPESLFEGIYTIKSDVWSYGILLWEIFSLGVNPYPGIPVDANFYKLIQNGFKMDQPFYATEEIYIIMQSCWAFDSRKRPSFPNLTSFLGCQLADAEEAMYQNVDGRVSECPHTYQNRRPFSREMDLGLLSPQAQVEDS
Method: as §1

[7] = target: various enzymes (Homo sapiens, UniProt Q9BYT3); settings: compound 1 uM
Method: as §1

[8] = target: various enzymes (Homo sapiens, UniProt Q16659); settings: compound 1 uM
Method: as §1

[9] = target: various enzymes (Homo sapiens, UniProt O15111); settings: compound 1 uM
Chain of various enzymes (Homo sapiens, UniProt O15111) (O15111 whole entry): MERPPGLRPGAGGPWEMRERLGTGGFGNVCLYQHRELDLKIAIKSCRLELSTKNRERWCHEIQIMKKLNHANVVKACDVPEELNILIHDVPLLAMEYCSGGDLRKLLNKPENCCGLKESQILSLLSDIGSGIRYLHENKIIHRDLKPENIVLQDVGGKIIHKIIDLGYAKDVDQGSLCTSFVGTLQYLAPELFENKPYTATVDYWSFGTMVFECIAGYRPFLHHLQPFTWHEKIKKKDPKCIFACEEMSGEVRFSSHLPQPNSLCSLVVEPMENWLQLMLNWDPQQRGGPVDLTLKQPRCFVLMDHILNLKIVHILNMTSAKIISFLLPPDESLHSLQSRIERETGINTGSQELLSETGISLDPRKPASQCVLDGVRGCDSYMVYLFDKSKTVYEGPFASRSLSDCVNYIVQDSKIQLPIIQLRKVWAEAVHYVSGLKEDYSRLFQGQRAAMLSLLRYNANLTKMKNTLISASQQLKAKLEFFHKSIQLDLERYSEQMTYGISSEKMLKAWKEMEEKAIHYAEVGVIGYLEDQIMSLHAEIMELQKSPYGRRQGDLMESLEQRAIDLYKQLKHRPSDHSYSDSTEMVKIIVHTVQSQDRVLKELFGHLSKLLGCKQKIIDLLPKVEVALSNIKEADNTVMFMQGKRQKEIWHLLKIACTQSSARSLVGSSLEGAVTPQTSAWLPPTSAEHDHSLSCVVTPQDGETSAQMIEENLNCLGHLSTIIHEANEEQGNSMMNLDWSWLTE
Method: as §1

[10] = target: various enzymes (Homo sapiens, UniProt P29376); settings: compound 1 uM
Chain of various enzymes (Homo sapiens, UniProt P29376) (P29376 17-864): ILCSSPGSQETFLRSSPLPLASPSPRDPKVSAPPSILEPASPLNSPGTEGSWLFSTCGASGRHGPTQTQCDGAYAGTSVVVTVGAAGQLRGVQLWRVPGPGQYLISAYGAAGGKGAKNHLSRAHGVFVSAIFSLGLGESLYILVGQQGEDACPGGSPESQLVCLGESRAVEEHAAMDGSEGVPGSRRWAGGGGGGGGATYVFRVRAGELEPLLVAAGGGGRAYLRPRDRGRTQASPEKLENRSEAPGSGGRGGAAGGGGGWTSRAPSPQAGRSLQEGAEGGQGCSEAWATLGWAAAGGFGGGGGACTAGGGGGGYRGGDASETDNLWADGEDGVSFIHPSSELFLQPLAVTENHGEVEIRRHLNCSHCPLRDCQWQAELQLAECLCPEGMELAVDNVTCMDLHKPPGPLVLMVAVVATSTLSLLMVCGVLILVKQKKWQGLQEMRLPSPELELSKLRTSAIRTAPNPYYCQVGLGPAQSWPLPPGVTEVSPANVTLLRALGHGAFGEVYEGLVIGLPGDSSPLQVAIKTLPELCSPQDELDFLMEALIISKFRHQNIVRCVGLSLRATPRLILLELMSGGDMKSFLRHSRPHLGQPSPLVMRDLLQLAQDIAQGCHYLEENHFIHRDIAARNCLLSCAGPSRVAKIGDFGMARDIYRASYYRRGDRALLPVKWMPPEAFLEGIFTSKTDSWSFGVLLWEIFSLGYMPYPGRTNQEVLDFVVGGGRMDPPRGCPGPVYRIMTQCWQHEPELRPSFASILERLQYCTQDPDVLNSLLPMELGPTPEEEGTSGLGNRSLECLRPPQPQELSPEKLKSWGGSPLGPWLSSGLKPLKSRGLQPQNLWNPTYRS
Method: as §1

[11] = target: various enzymes (Homo sapiens, UniProt Q9Y616); settings: compound 1 uM
Method: as §1

[12] = target: various enzymes (Homo sapiens, UniProt O94806); settings: compound 1 uM
Chain of various enzymes (Homo sapiens, UniProt O94806) (O94806 whole entry): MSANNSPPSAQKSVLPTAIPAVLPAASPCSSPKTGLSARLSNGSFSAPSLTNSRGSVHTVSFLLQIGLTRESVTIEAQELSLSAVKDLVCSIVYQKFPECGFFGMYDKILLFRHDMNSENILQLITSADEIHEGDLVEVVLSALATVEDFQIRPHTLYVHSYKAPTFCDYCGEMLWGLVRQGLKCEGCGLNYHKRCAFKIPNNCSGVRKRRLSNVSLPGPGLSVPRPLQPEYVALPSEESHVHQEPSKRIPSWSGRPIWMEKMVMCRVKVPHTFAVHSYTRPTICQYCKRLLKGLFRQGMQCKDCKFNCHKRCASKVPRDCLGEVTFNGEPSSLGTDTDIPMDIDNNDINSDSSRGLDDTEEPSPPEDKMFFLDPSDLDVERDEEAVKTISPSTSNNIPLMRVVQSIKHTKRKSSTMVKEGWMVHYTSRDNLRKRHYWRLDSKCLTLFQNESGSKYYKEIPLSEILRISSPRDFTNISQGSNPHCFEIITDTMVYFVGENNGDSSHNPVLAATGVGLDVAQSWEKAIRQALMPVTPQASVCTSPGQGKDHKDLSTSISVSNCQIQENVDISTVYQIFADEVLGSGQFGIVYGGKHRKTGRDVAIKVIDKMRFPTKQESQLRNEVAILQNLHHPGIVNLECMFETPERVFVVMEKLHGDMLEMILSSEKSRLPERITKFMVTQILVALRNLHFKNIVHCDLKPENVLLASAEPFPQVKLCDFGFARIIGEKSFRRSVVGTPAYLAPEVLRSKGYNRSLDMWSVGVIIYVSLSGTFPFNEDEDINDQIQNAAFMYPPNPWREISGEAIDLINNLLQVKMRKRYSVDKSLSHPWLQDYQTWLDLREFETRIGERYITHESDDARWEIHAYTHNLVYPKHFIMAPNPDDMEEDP
Method: as §1

[13] = target: various enzymes (Homo sapiens, UniProt Q08345); settings: compound 1 uM
Method: as §1

[14] = target: various enzymes (Homo sapiens, UniProt P06241); settings: compound 1 uM
Chain of various enzymes (Homo sapiens, UniProt P06241) (P06241 whole entry): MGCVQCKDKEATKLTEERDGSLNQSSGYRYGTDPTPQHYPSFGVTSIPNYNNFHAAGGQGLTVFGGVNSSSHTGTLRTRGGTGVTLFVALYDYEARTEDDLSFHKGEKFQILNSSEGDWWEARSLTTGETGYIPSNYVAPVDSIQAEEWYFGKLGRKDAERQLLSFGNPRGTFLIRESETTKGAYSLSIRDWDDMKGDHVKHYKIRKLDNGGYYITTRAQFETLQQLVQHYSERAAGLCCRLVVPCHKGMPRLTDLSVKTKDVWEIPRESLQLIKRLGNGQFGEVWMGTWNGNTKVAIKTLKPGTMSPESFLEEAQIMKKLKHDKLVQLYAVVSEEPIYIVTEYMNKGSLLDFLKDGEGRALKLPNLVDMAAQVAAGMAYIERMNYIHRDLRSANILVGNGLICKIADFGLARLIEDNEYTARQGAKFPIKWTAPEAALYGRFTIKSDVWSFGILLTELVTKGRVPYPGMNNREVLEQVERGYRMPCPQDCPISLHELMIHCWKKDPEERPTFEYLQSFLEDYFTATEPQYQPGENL
Method: as §1

[15] = target: various enzymes (Homo sapiens, UniProt P25098); settings: compound 1 uM
Chain of various enzymes (Homo sapiens, UniProt P25098) (P25098 whole entry): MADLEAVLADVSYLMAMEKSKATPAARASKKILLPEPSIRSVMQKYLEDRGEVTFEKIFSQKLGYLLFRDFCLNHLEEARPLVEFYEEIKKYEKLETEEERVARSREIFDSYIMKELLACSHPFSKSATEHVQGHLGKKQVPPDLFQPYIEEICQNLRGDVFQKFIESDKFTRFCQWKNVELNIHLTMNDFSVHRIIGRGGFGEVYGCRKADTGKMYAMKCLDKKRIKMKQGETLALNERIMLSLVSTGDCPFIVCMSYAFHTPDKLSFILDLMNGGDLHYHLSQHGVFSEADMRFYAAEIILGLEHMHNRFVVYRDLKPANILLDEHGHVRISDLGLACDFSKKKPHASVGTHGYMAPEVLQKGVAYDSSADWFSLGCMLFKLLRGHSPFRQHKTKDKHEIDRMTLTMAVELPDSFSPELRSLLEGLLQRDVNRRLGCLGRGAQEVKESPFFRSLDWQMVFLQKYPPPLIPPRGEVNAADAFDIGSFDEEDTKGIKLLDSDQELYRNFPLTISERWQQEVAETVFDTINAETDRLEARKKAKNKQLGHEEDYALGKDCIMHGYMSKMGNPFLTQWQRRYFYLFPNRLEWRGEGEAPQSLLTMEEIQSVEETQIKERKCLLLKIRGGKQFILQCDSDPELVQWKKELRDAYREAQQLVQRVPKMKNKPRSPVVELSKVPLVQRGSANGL
Method: as §1

[16] = target: various enzymes (Homo sapiens, UniProt P00519, M351T)
Method: as §1

[17] = target: various enzymes (Homo sapiens, UniProt P00533); settings: compound 1 uM
Method: as §1

[18] = target: various enzymes (Homo sapiens, UniProt O43353); settings: compound 1 uM
Method: as §1

[19] = target: various enzymes (Homo sapiens, UniProt Q8TD19); settings: compound 1 uM
Chain of various enzymes (Homo sapiens, UniProt Q8TD19) (Q8TD19 whole entry): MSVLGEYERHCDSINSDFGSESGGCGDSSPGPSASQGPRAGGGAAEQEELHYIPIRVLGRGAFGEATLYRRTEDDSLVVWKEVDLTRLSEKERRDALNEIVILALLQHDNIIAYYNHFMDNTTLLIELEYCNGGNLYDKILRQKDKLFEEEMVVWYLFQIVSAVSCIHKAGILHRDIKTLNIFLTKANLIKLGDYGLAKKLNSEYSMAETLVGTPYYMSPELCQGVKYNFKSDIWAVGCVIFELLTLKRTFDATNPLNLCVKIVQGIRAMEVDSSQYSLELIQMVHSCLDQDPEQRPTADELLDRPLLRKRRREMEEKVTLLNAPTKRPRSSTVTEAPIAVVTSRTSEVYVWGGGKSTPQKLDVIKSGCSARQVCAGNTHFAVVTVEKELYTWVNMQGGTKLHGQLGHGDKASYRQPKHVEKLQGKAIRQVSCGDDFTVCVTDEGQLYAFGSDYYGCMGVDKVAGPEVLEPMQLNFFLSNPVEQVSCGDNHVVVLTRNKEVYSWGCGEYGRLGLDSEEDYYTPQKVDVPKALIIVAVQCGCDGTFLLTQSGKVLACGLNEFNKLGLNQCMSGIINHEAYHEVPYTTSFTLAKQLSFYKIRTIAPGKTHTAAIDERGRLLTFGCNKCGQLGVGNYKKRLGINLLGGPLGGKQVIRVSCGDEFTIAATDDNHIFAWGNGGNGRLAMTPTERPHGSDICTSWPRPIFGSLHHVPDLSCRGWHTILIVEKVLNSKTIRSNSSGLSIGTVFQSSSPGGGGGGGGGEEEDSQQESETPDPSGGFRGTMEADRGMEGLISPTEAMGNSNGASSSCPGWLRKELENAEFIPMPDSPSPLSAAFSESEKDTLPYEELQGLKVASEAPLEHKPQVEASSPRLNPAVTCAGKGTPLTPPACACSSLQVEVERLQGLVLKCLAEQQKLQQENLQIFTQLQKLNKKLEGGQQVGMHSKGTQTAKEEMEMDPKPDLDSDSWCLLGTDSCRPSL
Method: as §1

[20] = target: T2, various enzymes (Homo sapiens, UniProt Q96L34); settings: compound 1 uM
T2 sequence (Q96L34 1-752): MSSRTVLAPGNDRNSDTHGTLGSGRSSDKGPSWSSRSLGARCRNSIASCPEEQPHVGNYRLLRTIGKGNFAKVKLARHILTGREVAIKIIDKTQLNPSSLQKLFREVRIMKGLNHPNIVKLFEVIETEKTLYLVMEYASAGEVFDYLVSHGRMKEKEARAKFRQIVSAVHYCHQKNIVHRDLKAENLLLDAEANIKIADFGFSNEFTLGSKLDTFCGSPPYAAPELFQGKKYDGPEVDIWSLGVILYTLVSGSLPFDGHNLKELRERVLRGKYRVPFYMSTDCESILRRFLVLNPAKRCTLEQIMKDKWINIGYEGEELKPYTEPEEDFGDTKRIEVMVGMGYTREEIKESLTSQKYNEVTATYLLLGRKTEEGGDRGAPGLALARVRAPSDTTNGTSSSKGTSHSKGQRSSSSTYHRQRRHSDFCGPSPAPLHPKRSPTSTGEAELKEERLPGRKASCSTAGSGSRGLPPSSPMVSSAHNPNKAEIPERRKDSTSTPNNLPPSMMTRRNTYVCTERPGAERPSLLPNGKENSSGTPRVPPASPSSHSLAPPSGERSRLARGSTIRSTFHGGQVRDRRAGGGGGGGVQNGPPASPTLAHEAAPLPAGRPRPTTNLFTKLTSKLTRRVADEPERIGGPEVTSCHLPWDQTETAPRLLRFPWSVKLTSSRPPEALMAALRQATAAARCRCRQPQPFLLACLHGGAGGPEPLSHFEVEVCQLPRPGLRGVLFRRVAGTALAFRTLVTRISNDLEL
Method: as §1

[21] = target: various enzymes (Homo sapiens, UniProt Q9BVS4); settings: compound 1 uM
Method: as §1

Row | Compound | Ambit profiling: EPHA2 [1] | Ambit profiling: PFTK1 [2] | Ambit profiling: ABL1(F317I)-nonphosphorylated [3] | Ambit profiling: ABL1(F317I)-phosphorylated [3] | Ambit profiling: RIPK1 [4] | Ambit profiling: WNK4 [5] | Ambit profiling: FLT3 [6] | Ambit profiling: FLT3-autoinhibited [6] | Ambit profiling: STK33 [7] | Ambit profiling: ERK3 [8] | Ambit profiling: IKK-alpha [9] | Ambit profiling: LTK [10] | Ambit profiling: IRAK3 [11] | Ambit profiling: PRKD3 [12] | Ambit profiling: DDR1 [13] | Ambit profiling: FYN [14] | Ambit profiling: GRK2 [15] | Ambit profiling: EGFR [17] | Ambit profiling: RIPK2 [18] | Ambit profiling: NEK9 [19] | further results
1 | CC(C)N1Cc2nn(C)cc2-c2cnc3[nH]cc(c3c2)-c2cn(nc2C(F)(F)F)CCCC1=O [Compound 45, (Z)-5-isopropyl-31-methyl-13-(trifluoromethyl)-11H,21H,31H-5-aza-2(3,5)-pyrrolo[2,3-b]pyridina-1(4,1),3(4,3)-dipyrazolacyclononaphan-6-one] | 48 | 14 | 87 | 71 | 85 | 97 | 0 | 21 | 71 | 100 | 100 | 18 | 2.6 | 11 | 0.15 | 39 | 100 | 29 | 12 | 100 | Ambit profiling: ABL1(M351T)-phosphorylated ([16]; compound 1 uM): 19; Ambit profiling: MARK4 [20]: 28; Ambit profiling: RIOK2 [21]: 74
2 | COc1c2c(nn1C)CN(C(C)C)C(=O)CCCn1cc(c(C(F)(F)F)n1)-c1c[nH]c3ncc-2cc13 [Compound 50, (Z)-5-isopropyl-35-methoxy-31-methyl-13-(trifluoromethyl)-11H,21H,31H-5-aza-2(3,5)-pyrrolo[2,3-b]pyridina-1(4,1),3(4,3)-dipyrazolacyclononaphan-6-one] | 56 | 60 | 56 | 19 | 59 | 100 | 1.1 | 6.4 | 23 | 69 | 83 | 8.7 | 15 | 15 | 0.35 | 28 | 87 | 27 | 11 | 82 | Ambit profiling: ABL1(M351T)-phosphorylated [16]: 4.1; Ambit profiling: MARK4 [20]: 55; Ambit profiling: RIOK2 [21]: 64

From patent US12157741B2, “Macrocyclic inhibitors of DYRK1A” (DANA-FARBER CANCER INSTITUTE, INC., priority 2018, dated 2024)
